The numbers were not newly measured in paper PMC2785468, “Androgen Receptor Mutations Associated with Androgen Insensitivity Syndrome: A High Content Analysis Approach Leading to Personalized Medicine” (PLoS ONE, 2009), which cites them from elsewhere.

For series [1], the system named is F764L mutation. Set-up: method as in PMID 7929841. The conditions noted are these: MMTV-luc reporter, transfected CV1 cells; cited from earlier work.
The test system of series [2] is P766S. On the set-up: method as in PMID 7929841. The conditions noted are these: cited from earlier work.
The target in series [3] is mutant F764L. The conditions noted are these: transfected CHO cells; cited from earlier work.
For series [4], the system named is R840C mutated receptor. The conditions noted are these: transfected CV1 cells; cited from earlier work.

As to `C[C@]12CCC(=O)C[C@@H]1CC[C@@H]1[C@@H]2CC[C@]2(C)[C@@H](O)CC[C@@H]12` [DHT, dihydrotestosterone], in series [1], the “transcriptional activity (in words)” value is listed as “significantly decreased transcriptional activity”. Further, the “transcriptional activity, % of control” value is listed as 9% in series [2] and 67% in series [4]. Further, the Kd (usually the concentration at which binding is half-saturated) in series [3] is 0.1 nM.
